Experimental data as given in patent US20230250096A1, “SUBSTITUTED PHENYL-1H-PYRROLO[2,3-c] PYRIDINE DERIVATIVES” (Janssen Pharmaceutica NV, priority 2021, published 2023).

Key:
MEIS1 mRNA expression = MEIS1 mRNA expression assay (Quantigene Singleplex) in MOLM14 cells; assay type: cell-based, human; settings: 48 hours incubation
Summary of the method: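 MOLM14 cells, 3,750/well, exposed to increasing compound concentrations for 48 h. MEIS1 mRNA measured by QuantiGene Singleplex branched-DNA hybridization (lysis 45 min, hybridization 18–22 h, both 55 °C), normalized to RPL28. IC50 fitted to background-corrected fold change versus DMSO.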

[1] = biological target: T1, menin/MLL (terbium chelate-labeled menin, FITC-MBM1 peptide) (Homo sapiens, UniProt O00255, T541A); assay: Menin/MLL homogenous time-resolved fluorescence (HTRF) assay; assay type: binding; settings: 30 min incubation
T1 construct: Menin (a.a 1-610-6xhis tag, 2.3 mg/mL in 20 mM Hepes)
T1 sequence (O00255 with tags, fused parts or gaps T541A): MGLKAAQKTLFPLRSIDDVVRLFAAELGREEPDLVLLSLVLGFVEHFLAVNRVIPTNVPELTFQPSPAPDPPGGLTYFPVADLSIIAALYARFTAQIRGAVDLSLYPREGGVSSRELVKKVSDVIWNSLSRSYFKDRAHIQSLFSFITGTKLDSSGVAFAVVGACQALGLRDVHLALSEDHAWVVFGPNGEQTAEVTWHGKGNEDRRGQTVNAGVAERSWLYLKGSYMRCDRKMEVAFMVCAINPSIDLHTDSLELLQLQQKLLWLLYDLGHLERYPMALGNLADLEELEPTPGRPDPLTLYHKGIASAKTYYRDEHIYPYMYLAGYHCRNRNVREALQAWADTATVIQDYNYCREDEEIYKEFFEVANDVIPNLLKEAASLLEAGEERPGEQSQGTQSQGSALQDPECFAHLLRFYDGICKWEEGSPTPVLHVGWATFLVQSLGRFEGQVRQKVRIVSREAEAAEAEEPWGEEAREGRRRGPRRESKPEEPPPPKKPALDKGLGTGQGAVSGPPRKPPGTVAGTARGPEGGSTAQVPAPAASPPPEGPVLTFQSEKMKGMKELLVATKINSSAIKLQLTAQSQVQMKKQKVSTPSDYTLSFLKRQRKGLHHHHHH
Summary of the method: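 Terbium-labeled menin (a.a. 1-610, His-tagged; […]) pre-incubated 30 min with compound, then 75 nM FITC-MBM1 peptide added for 15 min at ambient temperature in Tris pH 7.5 buffer, 0.5% DMSO. HTRF 520/490 nm ratio read; IC50 from 11-point four-fold titrations, typically from 10 μM.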

Row | IC50 (MEIS1 mRNA expression; Homo sapiens, MOLM-14, 48 h) | IC50 [1] | IC50 (MEIS1 mRNA expression) | SMILES
1 | 386 nM | 0.223 nM | – | Cc1cncc2c1c(C[C@@H]1CCN(CC3CCOCC3)C1)cn2-c1ccc(F)cc1C(=O)N1CCC(O)C1C (stereo in doubt) [Compound 358]
2 | 158 nM | 0.305 nM | – | COCCN(C)CCCC(C(C)C)N1CCC(Cc2cn(-c3ccc(F)cc3C(=O)N(C)C(C)C)c3cncc(C(F)(F)F)c23)C1 (centres unmarked) [Compound 7]
3 | 7 nM | 0.036 nM | – | CCC([C@H]1C[C@@H](N2C[C@H]3CN(C(C)=O)C[C@@H]3C2)C1)N1CC[C@@H](Cc2cn(-c3ccc(F)cc3C(=O)N(C)C(C)C)c3cncc(Cl)c23)C1 (some centres unmarked) [Compound 26a]
4 | – | ~0.036 nM | 29 nM | CCC([C@H]1C[C@@H](N2C[C@H]3CN(C(C)=O)C[C@@H]3C2)C1)N1CC[C@@H](Cc2cn(-c3ccc(F)cc3C(=O)N(C)C(C)C)c3cncc(Cl)c23)C1 (some centres unmarked) [Compound 26b]
5 | 23 nM | 0.03 nM | – | Cc1cncc2c1c(CC1CN([C@@H](C(C)C)[C@H]3C[C@H](N4CCC(S(C)(=O)=O)CC4)C3)C1)cn2-c1ccc(F)cc1C(=O)N(C)C(C)C [Compound 33b]
6 | 47 nM | 0.077 nM | – | CCN(C(=O)c1cc(F)ccc1-n1cc(CC2CN(C(C(C)C)[C@H]3C[C@H](N4CCN(C(C)=O)CC4)C3)C2)c2c(C)cncc21)C(C)C (some centres unmarked) [Compound 35b]
7 | 28 nM | 0.237 nM | – | CCN(C(=O)c1cc(F)ccc1-n1cc(CC2CN(C(C(C)C)[C@H]3C[C@H](N4CCN(S(C)(=O)=O)CC4)C3)C2)c2c(C)cncc21)C(C)C (some centres unmarked) [Compound 37b]
8 | 14 nM | 0.085 nM | – | Cc1cncc2c1c(CC1CN(CC3CCN(C(=O)OC(C)(C)C)CC3)C1)cn2-c1ccc(F)cc1C(=O)N(C)C(C)C [Compound 62]
9 | ~39 nM | 0.284 nM | – | Cc1cncc2c1c(CC1CN(CC3CCN(S(C)(=O)=O)CC3)C1)cn2-c1ccc(F)cc1C(=O)N(C)C(C)C [Compound 64]
10 | 45 nM | 0.079 nM | – | COC(=O)N1CCC(CN2CC(Cc3cn(-c4ccc(F)cc4C(=O)N(C)C(C)C)c4cncc(C)c34)C2)CC1 [Compound 65]
11 | 2220 nM | 1.3 nM | – | Cc1cncc2c1c(CC1CN(CC(=O)N3CCOCC3)C1)cn2-c1ccc(F)cc1C(=O)N(C)C(C)C [Compound 83]
12 | 94 nM | 0.155 nM | – | Cc1cncc2c1c(CC1CN(C3CC4(CC(NC(=O)OC(C)(C)C)C4)C3)C1)cn2-c1ccc(F)cc1C(=O)N(C)C(C)C (centres unmarked) [Compound 91]
13 | 52 nM | 0.219 nM | – | Cc1cncc2c1c(CC1CN(CC3CCC4(CC3)OCCO4)C1)cn2-c1ccc(F)cc1C(=O)N(C)C(C)C [Compound 92]
14 | ~360 nM | 0.418 nM | – | CC(=O)N1CCC(CN2CCC(Cc3cn(-c4ccc(F)cc4S(=O)(=O)C(C)C)c4cncc(C)c34)C2)CC1 (centres unmarked) [Compound 93]
15 | 309 nM | 0.079 nM | – | CC(=O)N1CCC(CN2CC(Cc3cn(-c4ccc(F)cc4C(=O)N(C)C(C)C)c4cncc(C)c34)C2)C1 (centres unmarked) [Compound 94]
16 | ~914 nM | 0.601 nM | – | Cc1cncc2c1c(CC1CN(CC3CCCC(=O)N3)C1)cn2-c1ccc(F)cc1C(=O)N(C)C(C)C (centres unmarked) [Compound 95]
17 | 3690 nM | 4.57 nM | – | Cc1cncc2c1c(CC1CN(CC(=O)N3CCC(F)(F)C3)C1)cn2-c1ccc(F)cc1C(=O)N(C)C(C)C [Compound 96]
18 | 1610 nM | 1.97 nM | – | Cc1cncc2c1c(CC1CN(CC(=O)N3CC4CC4C3)C1)cn2-c1ccc(F)cc1C(=O)N(C)C(C)C (centres unmarked) [Compound 97]
19 | ~535 nM | 0.747 nM | – | Cc1cncc2c1c(CC1CN(CC(=O)N3CCCCC3)C1)cn2-c1ccc(F)cc1C(=O)N(C)C(C)C [Compound 98]
20 | > 1000 nM | 3.02 nM | – | CC(=O)N1CC(CN2CCC(Cc3cn(-c4ccc(F)cc4C(=O)N(C)C(C)C)c4cncc(C)c34)CC2)C1 [Compound 102]

Row | IC50 (MEIS1 mRNA expression; Homo sapiens, MOLM-14, 48 h) | IC50 [1] | IC50 (MEIS1 mRNA expression) | SMILES
21 | > 1000 nM | 0.728 nM | – | Cc1cncc2c1c(CC1CCN(C[C@@H]3CCC(=O)N3)CC1)cn2-c1ccc(F)cc1C(=O)N(C)C(C)C [Compound 105]
22 | 226 nM | 0.188 nM | – | CC(=O)N1CC2(CC(CN3CCC(Cc4cn(-c5ccc(F)cc5C(=O)N(C)C(C)C)c5cncc(C)c45)C3)C2)C1 (centres unmarked) [Compound 107]
23 | 53 nM | 0.304 nM | – | Cc1cncc2c1c(CC1CCN(CC3CCOCC3)CC1)cn2-c1ccc(F)cc1C(=O)N(C)C(C)C [Compound 109]
24 | ~1070 nM | 1.8 nM | – | Cc1cncc2c1c(CC1CCN(C[C@H]3CCC(=O)N3)CC1)cn2-c1ccc(F)cc1C(=O)N(C)C(C)C [Compound 110]
25 | ~707 nM | 0.745 nM | – | COCC(=O)N1CC(CN2CCC(Cc3cn(-c4ccc(F)cc4C(=O)N(C)C(C)C)c4cncc(C)c34)CC2)C1 [Compound 111]
26 | 345 nM | 0.555 nM | – | CC(=O)N1CC[C@@H](CN2CCC(Cc3cn(-c4ccc(F)cc4C(=O)N(C)C(C)C)c4cncc(C)c34)CC2)C1 [Compound 112]
27 | ~493 nM | 0.642 nM | – | CC(=O)N1CC[C@H](CN2CCC(Cc3cn(-c4ccc(F)cc4C(=O)N(C)C(C)C)c4cncc(C)c34)CC2)C1 [Compound 113]
28 | 487 nM | 0.173 nM | – | CC(=O)N1CC(CN2CC(Cc3cn(-c4ccc(F)cc4C(=O)N(C)C(C)C)c4cncc(C)c34)C2)C1 [Compound 114]
29 | 11 nM | 0.021 nM | – | Cc1cncc2c1c(CC1CN(C[C@H]3CC[C@H](NS(C)(=O)=O)CC3)C1)cn2-c1ccc(F)cc1C(=O)N(C)C(C)C [Compound 115]
30 | 117 nM | 0.139 nM | – | CC(=O)N[C@H]1CC[C@H](CN2CC(Cc3cn(-c4ccc(F)cc4C(=O)N(C)C(C)C)c4cncc(C)c34)C2)CC1 [Compound 118]
31 | 277 nM | 0.291 nM | – | CNC(=O)C1CC(CN2CCC(Cc3cn(-c4ccc(F)cc4C(=O)N(C)C(C)C)c4cncc(C)c34)CC2)C1 (centres unmarked) [Compound 129]
32 | 314 nM | 1.2 nM | – | CC(=O)N1CCC(CN2C[C@H](Cc3cn(-c4ccc(F)cc4C(=O)N(C)C(C)C)c4cncc(C)c34)C[C@H]2C)CC1 [Compound 130]
33 | 129 nM | 0.132 nM | – | CC(=O)N1CCC(CN2C[C@@H](Cc3cn(-c4ccc(F)cc4C(=O)N(C)C(C)C)c4cncc(C)c34)C[C@H]2C)CC1 [Compound 131]
34 | ~573 nM | 1.21 nM | – | CC(=O)N1CCC(CN2C[C@H](Cc3cn(-c4ccc(F)cc4C(=O)N(C)C(C)C)c4cncc(C)c34)C[C@@H]2C)CC1 [Compound 132]
35 | 42 nM | 0.051 nM | – | CC(=O)N1CCC(CN2C[C@@H](Cc3cn(-c4ccc(F)cc4C(=O)N(C)C(C)C)c4cncc(C)c34)C[C@@H]2C)CC1 [Compound 133]
36 | 10 nM | 0.086 nM | – | Cc1cncc2c1c(CC1CN(C[C@H]3CC[C@H](C(=O)N(C)C)CC3)C1)cn2-c1ccc(F)cc1C(=O)N(C)C(C)C [Compound 142]
37 | 5 nM | 0.064 nM | – | CCNC(=O)[C@H]1CC[C@H](CN2CC(Cc3cn(-c4ccc(F)cc4C(=O)N(C)C(C)C)c4cncc(C)c34)C2)CC1 [Compound 143]
38 | ~748 nM | 1.06 nM | – | CC(=O)N1CCC(CN2CCC[C@H](Cc3cn(-c4ccc(F)cc4C(=O)N(C)C(C)C)c4cncc(C)c34)C2)CC1 [Compound 145]
39 | > 1000 nM | 1.22 nM | – | CC(=O)N1CCC(CN2CCC[C@@H](Cc3cn(-c4ccc(F)cc4C(=O)N(C)C(C)C)c4cncc(C)c34)C2)CC1 [Compound 146]
40 | 23 nM | 0.037 nM | – | Cc1cncc2c1c(C[C@@H]1CCN(CC3CCN(C(=O)N(C)C)CC3)C1)cn2-c1ccc(F)cc1C(=O)N(C)C(C)C [Compound 149]
